Measurements reported in US9975903B2, “Condensed heterocyclic compound” (Takeda Pharmaceutical Company Limited, priority 2014, dated 2018).
Structures can show the parent of a compound that is named as a salt.

Biological target: T1, Human recombinant enteropeptidase (Homo sapiens, UniProt P98073)
T1 construct: purchased ITSI-Biosciences LLC #REN-260
Assay: Human enteropeptidase inhibitory activity (Test Example 1)
Format: biochemical
Conditions: 3.3 μM test compound; inhibition rate from fluorescence intensity at 2 hours after the start of the reaction; read-out: 3.3 μM Inhibition
Protocol: Human recombinant enteropeptidase (#REN-260, ITSI-Biosciences LLC) was diluted with an assay buffer (50 mM Tricine, pH 8.0, 0.01 (w/v) %, Tween 20, 10 mM CaCl2) to prepare a 24 mU/mL enzyme solution. Subsequently, 5FAM-Abu-Gly-Asp-Asp-Asp-Lys-Ile-Val-Gly-Gly-Lys(CPQ2)-Lys-Lys-NH2 (SEQ ID NO: 1, purity: 97.2%, CPC Scientific Inc.) was diluted with the assay buffer to prepare a 2.1 μM substrate solution. A test compound is dissolved in DMSO into a 1 mM solution, and the solution was diluted by 100-fold with the assay buffer to give a compound solution. To a 384-well black plate (#784076, Greiner Bio-One), 5 μL of the compound solution and 5 μL of the substrate solution were added and mixed, and 5 μL of the enzyme solution was then added to the mixture, followed by mixing to start the reaction. The fluorescence intensity was measured with a fluorescence plate reader EnVision (The Perkin-Elmer Corp.) at an excitation wavelength of 485 nm and a fluorescence wavelength of 535 nm. The same reaction as above except that the test compound was not contained was performed (test compound non-addition group). Furthermore, the same reaction as above except that the test compound and the enzyme were not contained was performed (control group). The inhibition rate was calculated using the fluorescence intensity at 2 hours after the start of the reaction by the following expression: Inhibition rate (%)=(1−((fluorescence intensity of test compound addition group)−(fluorescence intensity of control group))/((fluorescence intensity of test compound non-addition group)−(fluorescence intensity of control group)))×100

T1 sequence (P98073 whole entry): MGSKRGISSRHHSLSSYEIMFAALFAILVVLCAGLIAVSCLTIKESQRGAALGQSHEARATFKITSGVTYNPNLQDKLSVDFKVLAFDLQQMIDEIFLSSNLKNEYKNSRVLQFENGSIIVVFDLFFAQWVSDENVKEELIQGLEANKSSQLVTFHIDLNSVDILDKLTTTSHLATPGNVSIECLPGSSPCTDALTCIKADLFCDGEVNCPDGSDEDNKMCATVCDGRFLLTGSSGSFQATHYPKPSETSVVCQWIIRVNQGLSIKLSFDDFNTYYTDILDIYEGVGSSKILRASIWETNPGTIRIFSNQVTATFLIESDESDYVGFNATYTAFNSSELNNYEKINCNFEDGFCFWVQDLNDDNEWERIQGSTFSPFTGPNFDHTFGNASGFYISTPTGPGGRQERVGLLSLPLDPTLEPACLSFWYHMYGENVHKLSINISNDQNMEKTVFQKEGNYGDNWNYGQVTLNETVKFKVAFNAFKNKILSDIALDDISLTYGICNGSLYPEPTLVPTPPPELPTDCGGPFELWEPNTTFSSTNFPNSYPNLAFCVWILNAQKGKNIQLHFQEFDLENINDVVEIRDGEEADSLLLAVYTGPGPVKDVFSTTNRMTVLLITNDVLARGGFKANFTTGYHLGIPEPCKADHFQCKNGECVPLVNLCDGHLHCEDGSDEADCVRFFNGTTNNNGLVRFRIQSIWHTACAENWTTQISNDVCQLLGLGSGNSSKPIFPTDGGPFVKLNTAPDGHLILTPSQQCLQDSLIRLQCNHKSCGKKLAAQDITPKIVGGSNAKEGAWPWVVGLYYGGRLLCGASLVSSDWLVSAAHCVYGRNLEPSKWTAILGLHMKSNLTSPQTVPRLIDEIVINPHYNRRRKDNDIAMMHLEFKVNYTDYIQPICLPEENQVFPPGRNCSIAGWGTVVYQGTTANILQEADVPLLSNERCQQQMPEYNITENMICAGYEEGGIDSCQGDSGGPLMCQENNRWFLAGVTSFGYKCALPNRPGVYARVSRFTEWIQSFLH

SMILES	inhibition at 3.3 µM [%]
N=C(N)Nc1ccc2c(c1)OCCc1cc(CCC(=O)N[C@@H](CC(=O)O)C(=O)O)ccc1OC2=O [Example 50, N-(3-(9-Carbamimidamido-6-oxo-12,13-dihydro-6H-dibenzo[b,f][1,5]dioxonin-2-yl)propanoyl)-L-aspartic acid trifluoroacetate]	101
N=C(N)Nc1ccc2c(c1)CCCOc1c(CCC(=O)N[C@@H](CC(=O)O)C(=O)O)cccc1OC2=O [Example 47, N-(3-(10-Carbamimidamido-13-oxo-6,7,8,13-tetrahydrodibenzo[b,f][1,4]dioxecin-4-yl)propanoyl)aspartic acid]	101
N=C(N)Nc1ccc2c(c1)CCCCc1c(CC(=O)N[C@@H](CC(=O)O)C(=O)O)cccc1OC2=O [Example 32, N-((3-carbamimidamido-14-oxo-5,7,8,14-tetrahydro-6H-dibenzo[b,h]oxecin-9-yl)acetyl)-L-aspartic acid]	71
N=C(N)Nc1ccc2c(c1)CCCOc1c(ccc(CCC(=O)NC(CC(=O)O)CC(=O)O)c1C(=O)O)OC2=O [Example 131, 3-((3-(10-carbamimidamido-4-carboxy-13-oxo-6,7,8,13-tetrahydro-dibenzo[b,f] [1,4]dioxecin-3-yl)propanoyl)amino) pentanedioic acid]	100
N=C(N)Nc1ccc2c(c1)CCCc1c(cccc1C(=O)N[C@@H](CC(=O)O)C(=O)O)OC2=O [Example 30, N-((9-Carbamimidamido-6-oxo-6,11,12,13-tetrahydrodibenzo[b,g]oxonin-1-yl)carbonyl)-L-aspartic acid trifluoroacetate]	101
N=C(N)Nc1ccc2c(c1)CCCOc1c(CCC(=O)N[C@@H](CC(N)=O)C(=O)O)cccc1OC2=O [Example 97, N^~2^~-(3-(10-carbamimidamido-13-oxo-6,7,8,13-tetrahydro-dibenzo[b,f] [1,4]dioxecin-4-yl)propanoyl)-L-asparagine]	100
N=C(N)Nc1ccc2c(c1)CCCOc1c(cccc1C(=O)N(CC(=O)O)Cc1cccc(CN(CC(=O)O)CC(=O)O)n1)OC2=O [Example 126, N-((6-((bis(carboxy-methyl)amino)methyl)pyridin-2-yl)methyl)-N-((10-carbamimidamido-13-oxo-6,7,8,13-tetrahydro-dibenzo[b,f] [1,4]dioxecin-4-yl)carbonyl)glycine]	100
N=C(N)Nc1ccc2c(c1)OCCCCOc1cc(CCC(=O)NC(CC(=O)O)C(=O)O)ccc1OC2=O (centres unmarked) [Example 46, N-(3-(3-carbamimidamido-16-oxo-6,7,8,9-tetrahydro-16H-dibenzo[b,f][1,4,8]trioxacyclo-dodecin-12-yl)propanoyl) aspartic acid]	100
CN(CC(=O)N[C@@H](CC(=O)O)C(=O)O)C(=O)c1cccc2c1OCCCc1cc(NC(=N)N)ccc1C(=O)O2 [Example 103, N-((10-carbamimidamido-13-oxo-6,7,8,13-tetrahydro-dibenzo[b,f] [1,4]dioxecin-4-yl)carbonyl)-N-methylglycyl-L-aspartic acid]	101
N=C(N)Nc1ccc2c(c1)OCCCOc1c(CCC(=O)N[C@@H](CC(=O)O)C(=O)O)cccc1OC2=O [Example 43, N-(3-(3-Carbamimidamido-15-oxo-7,8-dihydro-6H, 15H-dibenzo[b,f][1,4,8]trioxacycloundecin-10-yl)propanoyl)aspartic acid trifluoroacetate]	101
N=C(N)Nc1ccc2c(c1)CCCCc1c(cccc1C(=O)NC(CC(=O)O)CC(=O)O)OC2=O [Example 74, 3-(((3-carbamimidamido-14-oxo-5,7,8,14-tetrahydro-6H-dibenzo[b,h]oxecin-9-yl)carbony)amino)pentanedioic acid]	101
N=C(N)Nc1ccc2c(c1)CCCCc1cc3c(cc1OC2=O)OC[C@H]3CC(=O)NCCS(=O)(=O)O [Example 35, 2-((((10S)-3-carbamimidamido-15-oxo-5,7,8,10,11,15-hexahydro-6H-12,14-dioxabenzo[5,6]cyclodeca[1,2-f]inden-10-yl)acetyl)amino)ethane-sulfonic acid]	90
N=C(N)NCCC[C@H](NC(=O)c1cccc2c1OCCCc1cc(NC(=N)N)ccc1C(=O)O2)C(=O)O [Example 8, N^~2^~-((10-carbamimidamido-13-oxo-6,7,8,13-tetrahydro-dibenzo[b,f] [1,4]dioxecin-4-yl)carbonyl)-L-arginine]	100
N=C(N)Nc1ccc2c(c1)CCCOc1c(cccc1C1=NO[C@@](CC(=O)O)(C(=O)O)C1)OC2=O (stereo in doubt) [Example 22, 3-(10-Carbamimidamido-13-oxo-6,7,8,13-tetrahydrodibenzo[b,f][1,4]dioxecin-4-yl)-5-(carboxymethyl)-4,5-dihydro-1,2-oxazole-5-carboxylic acid]	101
N=C(N)Nc1ccc2c(c1)CCCOc1c(cccc1C(=O)N1CCC[C@H]1C(=O)O)OC2=O [Example 12, 1-((10-carbamimidamido-13-oxo-6,7,8,13-tetrahydro-dibenzo[b,f] [1,4]dioxecin-4-yl)carbonyl)-L-proline]	101
N=C(N)Nc1ccc2c(c1)CCCCc1c(cccc1C(=O)O)OC2=O [Example 34, 3-carbamimidamido-14-oxo-6,7,8,14-tetrahydro-6H-dibenzo[b, h]oxecine-9-carboxylic acid]	75
N=C(N)c1ccc2c(c1)CCCCc1cc(C(=O)N[C@@H](CC(=O)O)C(=O)O)ccc1C(=O)O2 [Example 69, N-((10-Carbamimidoyl-14-oxo-5,7,8,14-tetrahydro-6H-dibenzo[b,h]oxecin-3-yl)carbonyl)-L-aspartic acid trifluoroacetate]	100
N=C(N)Nc1ccc2c(c1)CCCOc1c(cccc1C(=O)N(CCOCc1ccccc1)C(CC(=O)O)C(=O)O)OC2=O (centres unmarked) [Example 137]	100
N=C(N)Nc1ccc2c(c1)CCCOc1c(ccc(CCC(=O)O)c1C(=O)N[C@@H](Cc1ccc(O)cc1)C(=O)O)OC2=O [Example 113, N-((10-carbamimidamido-3-(2-carboxyethyl)-13-oxo-6,7,8,13-tetrahydro-dibenzo[b,f] [1,4]dioxecin-4-yl)carbonyl)-L-tyrosine]	99
N=C(N)Nc1ccc2c(c1)CCCOc1c(ccc(CCC(=O)O)c1C(=O)N(CC(=O)O)Cc1cccc(CN(CC(=O)O)CC(=O)O)c1)OC2=O [Example 148, 3-(4-((3-((bis(carboxymethyl)amino)methyl)-benzyl) (carboxymethyl)carbamoyl)-10-carbamimidamido-13-oxo-6,7,8,13-tetrahydro-dibenzo[b,f] [1,4]dioxecin-3-yl)propanoic acid]	101
N=C(N)Nc1ccc2c(c1)CCCOc1c(cccc1C(=O)N(CC(=O)O)CC(=O)N(CC(=O)O)Cc1cccc(C(=O)O)c1)OC2=O [Example 141, N-((10-Carbamimidamido-13-oxo-6,7,8,13-tetrahydrodibenzo[b,f][1,4]dioxecin-4-yl)carbonyl)-N-(carboxymethyl)glycyl-N-(3-carboxybenzyl)glycine]	100
N=C(N)Nc1ccc2c(c1)CCCOc1cc(C(=O)N[C@H](CC(=O)O)C(=O)O)ccc1OC2=O (stereo in doubt) [Example 45, N-((10-carbamimidamido-13-oxo-6,7,8,13-tetrahydro-dibenzo[b,f] [1,4]dioxecin-3-yl)carbonyl)aspartic acid]	100
N=C(N)Nc1ccc2c(c1)CCCOc1c(ccc(CCC(=O)NC(CC(=O)O)CC(=O)O)c1C(=O)N[C@@H](Cc1ccc(O)cc1)C(=O)O)OC2=O [Example 123, 3-((3-(10-carbamimidamido-4-(((1S)-1-carboxy-2-(4-hydroxyphenyl)ethyl)carbamoyl)-13-oxo-6,7,8,13-tetrahydro-dibenzo[b,f] [1,4]dioxecin-3-yl)propanoyl)amino) pentanedioic acid]	101
CN(CC(=O)N(C)[C@@H](CC(=O)O)C(=O)O)C(=O)c1cccc2c1OCCCc1cc(NC(=N)N)ccc1C(=O)O2 [Example 105, N-((10-carbamimidamido-13-oxo-6,7,8,13-tetrahydro-dibenzo[b,f] [1,4]dioxecin-4-yl)carbonyl)-N-methylglycyl-N-methyl-L-aspartic acid]	101
COCCN(C(=O)c1cccc2c1OCCCc1cc(NC(=N)N)ccc1C(=O)O2)[C@@H](CC(=O)O)C(=O)O [Example 109, N-((10-carbamimidamido-13-oxo-6,7,8,13-tetrahydro-dibenzo[b,f] [1,4]dioxecin-4-yl)carbonyl)-N-(2-methoxyethyl)-L-aspartic acid]	100
Cc1cc2c(c(C(=O)N[C@@H](CC(=O)O)C(=O)O)c1)CCCCc1cc(NC(=N)N)ccc1C(=O)O2 [Example 72, N-((3-carbamimidamido-11-methyl-14-oxo-5,7,8,14-tetrahydro-6H-dibenzo[b,h]oxecin-9-yl)carbonyl)-L-aspartic acid]	101
